This is an account of results in patent US5677419A, “Cyclic vasoactive peptide analogs” (Hoffmann-La Roche Inc., priority 1994, dated 1997).

Molecules are shown by their SMILES. Where a SMILES comes first, the peptide text is derived from it. Bridges are numbered along the chain shown (N, C = ends). [ ]: non-standard residue; d: D form. Phe(4-NH2) = Nc1ccc(C[C@H](N)C(=O)O)cc1; Phe(4-F) = N[C@@H](Cc1ccc(F)cc1)C(=O)O; 1Nal = N[C@@H](Cc1cccc2ccccc12)C(=O)O; Nle = CCCC[C@H](N)C(=O)O

Test [1] deals with guinea pigs. Kind of test: In vivo bronchodilator activity by tracheal instillation against histamine challenge. Set-up: species or system guinea pig. The following applies: anesthetized male guinea pigs, inhibition of histamine (i.v.)-induced rise in tracheal pressure. In outline:
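Urethane-anaesthetised male Hartley guinea pigs (400-600 g) received compound in water by intratracheal instillation, then were paralysed, ventilated and challenged with histamine […] i.v. Tracheal pressure change gave % inhibition (≥3 animals/group); ED50 from log dose-response; duration as time until inhibition fell to 40%.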

Test [2] has as its system guinea pig tracheal smooth muscle. Kind of test: Tracheal relaxant activity of VIP analogs on isolated guinea pig tracheal rings. It counts as cell-based. The note with it: cumulative concentration response, relaxation as % of maximum response to VIP (10^-6 M=100%), three tissues pooled, linear regression. In outline: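 Male guinea pig tracheal rings under 1.5 g resting tension in Krebs at 37° C, 95% O2/5% CO2, isometric tension. Cumulative concentration-response curves; relaxation as % of response to 10^-6 M VIP added at end; three tissues pooled, EC50 by linear regression.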

`CCCC[C@H](NC(=O)[C@H](CCC(N)=O)NC(=O)[C@H](CCCCN)NC(=O)[C@H](CCCNC(=N)N)NC(=O)[C@H](CC(C)C)NC(=O)[C@H](CCCCN)NC(=O)[C@@H](NC(=O)[C@H](Cc1ccc(O)cc1)NC(=O)[C@H](CC(N)=O)NC(=O)[C@H](CCC(=O)O)NC(=O)[C@@H](NC(=O)[C@H](Cc1ccc(F)cc1)NC(=O)[C@@H](NC(=O)[C@H](C)NC(=O)[C@H](CC(=O)O)NC(=O)[C@H](CO)NC(=O)[C@H](Cc1c[nH]cn1)NC(C)=O)C(C)C)[C@@H](C)O)[C@@H](C)O)C(=O)N[C@@H](C)C(=O)N[C@@H](C)C(=O)N[C@@H](CCCCN)C(=O)N[C@H]1CCCCNC(=O)C[C@@H](C(=O)N[C@@H](CC(C)C)C(=O)N[C@@H](CCCCN)C(=O)N[C@@H](CCCCN)C(N)=O)NC(=O)[C@H](CC(N)=O)NC(=O)[C@H](CC(C)C)NC(=O)[C@H](Cc2ccc(O)cc2)NC1=O` [SEQ ID NO:45, Ac-[p-F-Phe^6,Glu^8,Lys^12,Nle^17,Ala^19,Asp^25,Leu^26,Lys^27,28]-VIP cyclo (Lys^21 →Asp^25)] (Ac-HSDAV[Phe(4-F)]TENYTKLRKQ[Nle]AAKKYLNDLKK-NH2; lactam 21-25): in test [1], the “Bronchodilator activity of VIP analogs in guinea pigs, ED50” value (“Bronchodilator activity of VIP analogs” for short) is listed as 0.026 μg. In test [2], this compound had a 50% effective concentration (EC50) of 0.47 nM.
The corresponding values for `CCCC[C@H](NC(=O)[C@H](CCC(N)=O)NC(=O)[C@H](CCCCN)NC(=O)[C@H](CCCNC(=N)N)NC(=O)[C@H](CC(C)C)NC(=O)[C@H](CCCCN)NC(=O)[C@@H](NC(=O)[C@H](Cc1ccc(O)cc1)NC(=O)[C@H](CC(N)=O)NC(=O)[C@H](CCC(=O)O)NC(=O)[C@@H](NC(=O)[C@H](Cc1cccc2ccccc12)NC(=O)[C@@H](NC(=O)[C@H](C)NC(=O)[C@H](CC(=O)O)NC(=O)[C@H](CO)NC(=O)[C@H](Cc1c[nH]cn1)NC(C)=O)C(C)C)[C@@H](C)O)[C@@H](C)O)C(=O)N[C@@H](C)C(=O)N[C@@H](C)C(=O)N[C@@H](CCCCN)C(=O)N[C@H]1CCCCNC(=O)C[C@@H](C(=O)N[C@@H](CC(C)C)C(=O)N[C@@H](CCCCN)C(=O)N[C@@H](CCCCN)C(N)=O)NC(=O)[C@H](CC(N)=O)NC(=O)[C@H](CC(C)C)NC(=O)[C@H](Cc2ccc(O)cc2)NC1=O` [SEQ ID NO:46, Ac-[1-Nal^6,Glu^8,Lys^12,Nle^17,Ala^19,Asp^25,Leu^26,Lys^27,28]-VIP cyclo (Lys^21 →Asp^25)] (Ac-HSDAV[1Nal]TENYTKLRKQ[Nle]AAKKYLNDLKK-NH2; lactam 21-25) are 0.036 μg and 0.26 nM.
The corresponding values for `CCCC[C@H](NC(=O)[C@H](CCC(N)=O)NC(=O)[C@H](CCCCN)NC(=O)[C@H](CCCNC(=N)N)NC(=O)[C@H](CC(C)C)NC(=O)[C@H](CCCCN)NC(=O)[C@@H](NC(=O)[C@H](Cc1ccc(N)cc1)NC(=O)[C@H](CC(N)=O)NC(=O)[C@H](CCC(=O)O)NC(=O)[C@@H](NC(=O)[C@H](Cc1ccccc1)NC(=O)[C@@H](NC(=O)[C@H](C)NC(=O)[C@H](CC(=O)O)NC(=O)[C@H](CO)NC(=O)[C@H](Cc1c[nH]cn1)NC(C)=O)C(C)C)[C@@H](C)O)[C@@H](C)O)C(=O)N[C@@H](C)C(=O)N[C@@H](C)C(=O)N[C@@H](CCCCN)C(=O)N[C@H]1CCCCNC(=O)C[C@@H](C(=O)N[C@@H](CC(C)C)C(=O)N[C@@H](CCCCN)C(=O)N[C@@H](CCCCN)C(N)=O)NC(=O)[C@H](CC(N)=O)NC(=O)[C@H](CC(C)C)NC(=O)[C@H](Cc2ccc(O)cc2)NC1=O` [SEQ ID NO:47, Ac-[Glu^8,p-NH2 -Phe^10,Lys^12,Nle^17,Ala^19,Asp^25,Leu^26,Lys^27,28]-VIP cyclo (Lys^21 →Asp^25)] (Ac-HSDAVFTEN[Phe(4-NH2)]TKLRKQ[Nle]AAKKYLNDLKK-NH2; lactam 21-25) are 0.075 μg and 0.32 nM.
In the same order, the values of `CCCC[C@H](NC(=O)[C@H](CCC(N)=O)NC(=O)[C@H](CCCCN)NC(=O)[C@H](CCCNC(=N)N)NC(=O)[C@H](CC(C)C)NC(=O)[C@H](CCCCN)NC(=O)[C@@H](NC(=O)[C@H](Cc1ccc(OC)cc1)NC(=O)[C@H](CC(N)=O)NC(=O)[C@H](CCC(=O)O)NC(=O)[C@@H](NC(=O)[C@H](Cc1ccccc1)NC(=O)[C@@H](NC(=O)[C@H](C)NC(=O)[C@H](CC(=O)O)NC(=O)[C@H](CO)NC(=O)[C@H](Cc1c[nH]cn1)NC(C)=O)C(C)C)[C@@H](C)O)[C@@H](C)O)C(=O)N[C@@H](C)C(=O)N[C@@H](C)C(=O)N[C@@H](CCCCN)C(=O)N[C@H]1CCCCNC(=O)C[C@@H](C(=O)N[C@@H](CC(C)C)C(=O)N[C@@H](CCCCN)C(=O)N[C@@H](CCCCN)C(N)=O)NC(=O)[C@H](CC(N)=O)NC(=O)[C@H](CC(C)C)NC(=O)[C@H](Cc2ccc(O)cc2)NC1=O` [SEQ ID NO:48, Ac-[Glu^8,O-Me-Tyr^10,Lys^12,Nle^17,Ala^19,Asp^25,Leu^26, Lys^27,28]-VIP cyclo (Lys^21 →Asp^25)] (Ac-HSDAVFTENY(Me)TKLRKQ[Nle]AAKKYLNDLKK-NH2; lactam 21-25) are 0.094 μg and 0.41 nM.
Regarding `CCCC[C@H](NC(=O)[C@H](CCC(N)=O)NC(=O)[C@H](CCCCN)NC(=O)[C@H](CCCNC(=N)N)NC(=O)[C@H](CC(C)C)NC(=O)[C@H](CCCCN)NC(=O)[C@@H](NC(=O)[C@H](Cc1ccc(O)cc1)NC(=O)[C@H](CC(N)=O)NC(=O)[C@H](CC(=O)O)NC(=O)[C@@H](NC(=O)[C@H](Cc1ccc(F)cc1)NC(=O)[C@@H](NC(=O)[C@H](C)NC(=O)[C@H](CC(=O)O)NC(=O)[C@H](CO)NC(=O)[C@H](Cc1c[nH]cn1)NC(C)=O)C(C)C)[C@@H](C)O)[C@@H](C)O)C(=O)N[C@@H](C)C(=O)N[C@@H](C)C(=O)N[C@@H](CCCCN)C(=O)N[C@H]1CCCCNC(=O)C[C@@H](C(=O)N[C@H](C(=O)N[C@@H](CC(C)C)C(=O)N[C@H](C(N)=O)[C@@H](C)O)C(C)C)NC(=O)[C@H](CC(N)=O)NC(=O)[C@H](CC(C)C)NC(=O)[C@H](Cc2ccc(O)cc2)NC1=O` [SEQ ID NO:49, Ac-[p-F-Phe^6,Lys^12,Nle^17,Ala^19,Asp^25,Val^26,Thr^28]-VIP cyclo (Lys^21 →Asp^25)] (Ac-HSDAV[Phe(4-F)]TDNYTKLRKQ[Nle]AAKKYLNDVLT-NH2; lactam 21-25), the “Bronchodilator activity of VIP analogs” value in test [1] was 0.26 μg. In addition, in test [2], the 50% effective concentration (EC50) is 0.39 nM.
As for `CCCC[C@H](NC(=O)[C@H](CCC(N)=O)NC(=O)[C@H](CCCCN)NC(=O)[C@H](CCCNC(=N)N)NC(=O)[C@H](CC(C)C)NC(=O)[C@H](CCCCN)NC(=O)[C@@H](NC(=O)[C@H](Cc1ccc(O)cc1)NC(=O)[C@H](CC(N)=O)NC(=O)[C@H](CCC(=O)O)NC(=O)[C@@H](NC(=O)[C@H](Cc1ccccc1)NC(=O)[C@@H](NC(=O)[C@H](C)NC(=O)[C@H](CC(=O)O)NC(=O)[C@H](C)NC(=O)[C@H](Cc1c[nH]cn1)NC(C)=O)C(C)C)[C@@H](C)O)[C@@H](C)O)C(=O)N[C@@H](C)C(=O)N[C@@H](C)C(=O)N[C@@H](CCCCN)C(=O)N[C@H]1CCCCNC(=O)C[C@@H](C(=O)N[C@@H](CC(C)C)C(=O)N[C@@H](CCCCN)C(=O)N[C@@H](CCCCN)C(=O)NCC(=O)NCC(=O)N[C@H](C(N)=O)[C@@H](C)O)NC(=O)[C@H](CC(N)=O)NC(=O)[C@H](CC(C)C)NC(=O)[C@H](Cc2ccc(O)cc2)NC1=O` [SEQ ID NO:51, Ac-[Ala^2,Glu^8,Lys^12,Nle^17,Ala^19,Asp^25,Leu^26,Lys^27,28,Gly^29,30,Thr^31]-VIP cyclo (Lys^21 →Asp^25)] (Ac-HADAVFTENYTKLRKQ[Nle]AAKKYLNDLKKGGT-NH2; lactam 21-25), the “Bronchodilator activity of VIP analogs” value in test [1] worked out at 0.1 μg. In test [2], this compound yielded an EC50 of 0.92 nM.
